PubChem BioAssay AID248 (DTP/NCI, 2004)
Toxic doses and inconclusive results are not listed.

System: L1210 leukemia ip in BDF1 mice, survival T/C
Experiment: NCI In Vivo Anticancer Drug Screen. Data for tumor model L1210 Leukemia (intraperitoneal) in B6D2F1 (BDF1) mice
Conditions: endpoint: mean survival time, higher = longer survival
In short: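 Tumor cells were implanted, animals were treated, and survival was followed. The result divides the treated measurement by the vehicle-control measurement.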

[1] = dose: 100.0 mg/kg/injection, schedule: Q01DX009 (ip), vehicle: Klucel (hydroxypropylcellulose) (HPC)
[2] = dose: 100.0 mg/kg/injection, schedule: Q04DX003 (ip), vehicle: Klucel (hydroxypropylcellulose) (HPC)
[3] = dose: 200.0 mg/kg/injection, schedule: Q01DX009 (ip), vehicle: Klucel (hydroxypropylcellulose) (HPC)
[4] = dose: 200.0 mg/kg/injection, schedule: Q04DX003 (ip), vehicle: Klucel (hydroxypropylcellulose) (HPC)
[5] = dose: 400.0 mg/kg/injection, schedule: Q01DX009 (ip), vehicle: Klucel (hydroxypropylcellulose) (HPC)
[6] = dose: 400.0 mg/kg/injection, schedule: Q04DX003 (ip), vehicle: Klucel (hydroxypropylcellulose) (HPC)
[7] = dose: 50.0 mg/kg/injection, schedule: Q01DX001 (ip), vehicle: carboxymethylcellulose (CMC)
[8] = dose: 100.0 mg/kg/injection, schedule: Q01DX001 (ip), vehicle: carboxymethylcellulose (CMC)
[9] = dose: 200.0 mg/kg/injection, schedule: Q01DX001 (ip), vehicle: carboxymethylcellulose (CMC)
[10] = dose: 400.0 mg/kg/injection, schedule: Q01DX001 (ip), vehicle: carboxymethylcellulose (CMC)

COC(=O)CCCCC(=O)OCC#CC#CCOC(=O)CCCCC(=O)OC
T/C [1]: 95 % of control
T/C [2]: 91 % of control
T/C [3]: 104 % of control
T/C [4]: 92 % of control
T/C [5]: 98 % of control
T/C [6]: 92 % of control

OCC#CC#CCO
T/C (dose: 25.0 mg/kg/injection, schedule: Q01DX009 (ip), vehicle: saline): 95 % of control
T/C (dose: 50.0 mg/kg/injection, schedule: Q01DX009 (ip), vehicle: saline): 115 % of control
T/C (dose: 100.0 mg/kg/injection, schedule: Q01DX009 (ip), vehicle: saline): 105 % of control
T/C (dose: 100.0 mg/kg/injection, schedule: Q04DX003 (ip), vehicle: saline): 103 % of control

CC(=O)OC1=C(CC(C)(C)C)C(=O)c2ccccc2C1=O
T/C [7]: 103 % of control
T/C [8]: 103 % of control
T/C [9]: 100 % of control
T/C [10]: 105 % of control

CSc1ncnc2c1ncn2C1OC(CO)C2OC(C)(C)OC21 (stereo unspecified)
T/C (dose: 100.0 mg/kg/injection, schedule: Q01DX005 (ip), vehicle: saline): 112 % of control
T/C (dose: 200.0 mg/kg/injection, schedule: Q01DX005 (ip), vehicle: saline): 122 % of control

O=C(COc1ccc(Cl)c(Cl)c1)Nc1ccc[n+](Cc2ccc(Cl)cc2S(=O)(=O)F)c1
T/C (dose: 100.0 mg/kg/injection, schedule: Q04DX003 (ip), vehicle: saline with Tween-80): 97 % of control
T/C (dose: 200.0 mg/kg/injection, schedule: Q04DX003 (ip), vehicle: saline with Tween-80): 94 % of control
T/C (dose: 400.0 mg/kg/injection, schedule: Q04DX003 (ip), vehicle: saline with Tween-80): 101 % of control

O=C(C=C(C(F)(F)F)C(F)(F)F)c1ccccc1[N+](=O)[O-]
T/C (dose: 6.25 mg/kg/injection, schedule: Q01DX009 (ip), vehicle: other): 96 % of control
T/C (dose: 12.5 mg/kg/injection, schedule: Q01DX009 (ip), vehicle: other): 102 % of control
T/C (dose: 25.0 mg/kg/injection, schedule: Q01DX009 (ip), vehicle: other): 102 % of control

CCOC1c2cnc(C)n2C=CN1C(C)=O (stereo unspecified)
T/C (dose: 50.0 mg/kg/injection, schedule: Q01DX009 (ip), vehicle: water): 96 % of control
T/C (dose: 100.0 mg/kg/injection, schedule: Q01DX009 (ip), vehicle: water): 94 % of control
T/C (dose: 100.0 mg/kg/injection, schedule: Q04DX003 (ip), vehicle: water): 116 % of control
T/C (dose: 200.0 mg/kg/injection, schedule: Q04DX003 (ip), vehicle: water): 115 % of control

CN=C(N)c1ccc(NC(=O)/C=C\c2ccc(/C=C/C(=O)Nc3ccc(C(N)=NC)cc3)cc2)cc1
T/C (dose: 15.0 mg/kg/injection, schedule: Q01DX Z (ip), vehicle: saline): 121 % of control
T/C (dose: 60.0 mg/kg/injection, schedule: Q01DX Z (oral), vehicle: saline): 100 % of control
T/C (dose: 120.0 mg/kg/injection, schedule: Q01DX Z (ip), vehicle: saline): 179 % of control
T/C (dose: 120.0 mg/kg/injection, schedule: Q01DX Z (oral), vehicle: saline): 100 % of control
T/C (dose: 240.0 mg/kg/injection, schedule: Q01DX Z (oral), vehicle: saline): 101 % of control
T/C (dose: 480.0 mg/kg/injection, schedule: Q01DX Z (oral), vehicle: saline): 95 % of control

Nc1nccnc1Nc1ccccc1
T/C (dose: 75.0 mg/kg/injection, schedule: Q01DX001 (ip), vehicle: other): 100 % of control
T/C (dose: 150.0 mg/kg/injection, schedule: Q01DX001 (ip), vehicle: other): 100 % of control
T/C (dose: 300.0 mg/kg/injection, schedule: Q01DX001 (ip), vehicle: other): 100 % of control

O=c1c(N(CCO)CCO)cn(C(c2ccccc2)(c2ccccc2)c2ccccc2)c(=O)n1C(c1ccccc1)(c1ccccc1)c1ccccc1
T/C [7]: 104 % of control
T/C [8]: 96 % of control
T/C [9]: 100 % of control
T/C [10]: 96 % of control

CCOP(=O)(Nc1ccc2c(c1)Cc1c-2cc(Cl)c(NC(C)=O)c1Cl)OCC
T/C [7]: 97 % of control
T/C [8]: 92 % of control
T/C [9]: 94 % of control
T/C [10]: 92 % of control

C#CCOC(=O)Nc1cccc(Cl)c1
T/C [1]: 95 % of control
T/C [2]: 97 % of control
T/C [3]: 97 % of control
T/C [4]: 106 % of control
T/C [5]: 95 % of control
T/C [6]: 90 % of control

CCC1SC(=S)N(C(=O)c2ccc([N+](=O)[O-])cc2)C1CC (stereo unspecified)
T/C (dose: 25.0 mg/kg/injection, schedule: Q04DX002 (ip), vehicle: Klucel (hydroxypropylcellulose) (HPC)): 111 % of control
T/C (dose: 50.0 mg/kg/injection, schedule: Q04DX002 (ip), vehicle: Klucel (hydroxypropylcellulose) (HPC)): 95 % of control
